Assay: xn = mol fraction of the nth substance listed
Conditions: Liquid, Pycnometric method

CCCCCl [1-chlorobutane] + O=C=O
mass density [kg/m3]
Conditions	308.2 K	313.1 K
6210 kPa, x1 = 0.1488	843	–
6560 kPa, x1 = 0.0981	819	–
6560 kPa, x1 = 0.1488	848	–
6760 kPa, x1 = 0.1488	–	825
6790 kPa, x1 = 0.0981	825	–
6850 kPa, x1 = 0.1488	853	–
6910 kPa, x1 = 0.0744	786	–
6980 kPa, x1 = 0.0981	827	–
6980 kPa, x1 = 0.1488	–	828
7080 kPa, x1 = 0.0744	791	–
7130 kPa, x1 = 0.0981	–	791
7140 kPa, x1 = 0.0981	831	–
7240 kPa, x1 = 0.0483	742	–
7250 kPa, x1 = 0.1488	858	–
7310 kPa, x1 = 0.0981	–	795
7310 kPa, x1 = 0.1488	–	832
7320 kPa, x1 = 0.0981	834	–
7330 kPa, x1 = 0.0483	747	–
7430 kPa, x1 = 0.0483	752	–
7460 kPa, x1 = 0.0744	–	754
7470 kPa, x1 = 0.0744	801	–
7500 kPa, x1 = 0.0981	837	–
7530 kPa, x1 = 0.0483	757	–
7570 kPa, x1 = 0.0981	–	802
7640 kPa, x1 = 0.0243	670	–
7640 kPa, x1 = 0.0744	–	759
7660 kPa, x1 = 0.0483	761	–
7670 kPa, x1 = 0.0243	674	–
7700 kPa, x1 = 0.0744	807	–
7710 kPa, x1 = 0.0243	678	–
7730 kPa, x1 = 0.0981	840	–
7740 kPa, x1 = 0.0243	682	–
7740 kPa, x1 = 0.1488	863	837
7770 kPa, x1 = 0.0744	–	764
7780 kPa, x1 = 0.0243	686	–
7790 kPa, x1 = 0.0483	766	–
7820 kPa, x1 = 0.0243	690	–
7860 kPa, x1 = 0.0243	694	–
7860 kPa, x1 = 0.0981	–	807
7890 kPa, x1 = 0.0483	–	693
7940 kPa, x1 = 0.0243	701	–
7940 kPa, x1 = 0.0483	770	697
7940 kPa, x1 = 0.0744	–	769
7940 kPa, x1 = 0.0981	843	–
7950 kPa, x1 = 0.0744	812	–
8000 kPa, x1 = 0.0483	–	701
8030 kPa, x1 = 0.0243	707	–
8070 kPa, x1 = 0.0744	814	–
8090 kPa, x1 = 0.0744	–	773
8100 kPa, x1 = 0.0483	–	707
8110 kPa, x1 = 0.0483	776	–
8120 kPa, x1 = 0.0243	713	–
8170 kPa, x1 = 0.0981	846	–
8180 kPa, x1 = 0.0981	–	813
8190 kPa, x1 = 0.1488	–	841
8210 kPa, x1 = 0.0483	–	713
8220 kPa, x1 = 0.0243	–	545
8230 kPa, x1 = 0.0243	720	549
8230 kPa, x1 = 0.0744	817	–
8250 kPa, x1 = 0.0243	–	555
8270 kPa, x1 = 0.0744	–	778
8280 kPa, x1 = 0.0243	–	563
8280 kPa, x1 = 0.0483	780	–
8290 kPa, x1 = 0.1488	868	–
8300 kPa, x1 = 0.0243	–	571
8330 kPa, x1 = 0.0243	–	580
8340 kPa, x1 = 0.0483	–	719
8350 kPa, x1 = 0.0243	727	–
8350 kPa, x1 = 0.0744	820	–
8360 kPa, x1 = 0.0243	–	588
8390 kPa, x1 = 0.0981	849	–
8400 kPa, x1 = 0.0243	–	597
8450 kPa, x1 = 0.0483	–	725
8470 kPa, x1 = 0.0243	–	610
8470 kPa, x1 = 0.0483	785	–
8470 kPa, x1 = 0.0744	–	782
8480 kPa, x1 = 0.0243	734	–
8500 kPa, x1 = 0.0744	822	–
8510 kPa, x1 = 0.0981	–	819
8550 kPa, x1 = 0.0243	–	623
8560 kPa, x1 = 0.0483	788	–
8570 kPa, x1 = 0.0243	738	–
8600 kPa, x1 = 0.0483	–	732
8630 kPa, x1 = 0.0981	852	–
8640 kPa, x1 = 0.0744	825	–
8650 kPa, x1 = 0.0243	–	637
8670 kPa, x1 = 0.0483	790	–
8680 kPa, x1 = 0.0744	–	787
8760 kPa, x1 = 0.0483	–	738
8770 kPa, x1 = 0.0243	–	651
8770 kPa, x1 = 0.0483	793	–
8800 kPa, x1 = 0.0243	748	–
8830 kPa, x1 = 0.0744	828	–
8840 kPa, x1 = 0.1488	873	–
8890 kPa, x1 = 0.0483	795	–
8890 kPa, x1 = 0.0981	–	825
8900 kPa, x1 = 0.0744	–	792
8900 kPa, x1 = 0.0981	856	–
8910 kPa, x1 = 0.0243	753	–
8910 kPa, x1 = 0.1488	–	849
8930 kPa, x1 = 0.0243	–	666
8940 kPa, x1 = 0.0483	–	745
8970 kPa, x1 = 0.0744	830	–
9000 kPa, x1 = 0.0483	798	–
9050 kPa, x1 = 0.0243	758	–
9120 kPa, x1 = 0.0483	800	–
9130 kPa, x1 = 0.0243	–	682
9150 kPa, x1 = 0.0483	–	751
9150 kPa, x1 = 0.0744	–	797
9160 kPa, x1 = 0.0744	833	–
9160 kPa, x1 = 0.0981	859	–
9190 kPa, x1 = 0.0243	763	–
9230 kPa, x1 = 0.0483	803	–
9260 kPa, x1 = 0.0981	–	830
9330 kPa, x1 = 0.0744	836	–
9350 kPa, x1 = 0.0483	805	–
9370 kPa, x1 = 0.0483	–	759
9390 kPa, x1 = 0.0243	–	698
9410 kPa, x1 = 0.0744	–	802
9450 kPa, x1 = 0.0981	862	–
9450 kPa, x1 = 0.1488	–	853
9480 kPa, x1 = 0.1488	878	–
9490 kPa, x1 = 0.0483	808	–
9530 kPa, x1 = 0.0744	838	–
9620 kPa, x1 = 0.0483	–	765
9640 kPa, x1 = 0.0483	811	–
9670 kPa, x1 = 0.0744	–	807
9700 kPa, x1 = 0.0744	841	–
9710 kPa, x1 = 0.0243	–	716
9720 kPa, x1 = 0.0981	–	837
9780 kPa, x1 = 0.0483	813	–
9780 kPa, x1 = 0.0981	865	–
9810 kPa, x1 = 0.0483	–	770
9910 kPa, x1 = 0.0483	815	–
9940 kPa, x1 = 0.0744	844	–
9960 kPa, x1 = 0.0744	–	812
10000 kPa, x1 = 0.0483	–	775
10020 kPa, x1 = 0.0243	–	729
10030 kPa, x1 = 0.0981	869	–
10110 kPa, x1 = 0.0744	846	–
10150 kPa, x1 = 0.1488	883	–
10190 kPa, x1 = 0.0981	–	843
10220 kPa, x1 = 0.0483	–	780
10270 kPa, x1 = 0.1488	–	860
10280 kPa, x1 = 0.0243	–	738
10290 kPa, x1 = 0.0744	–	817
10380 kPa, x1 = 0.0981	872	–
10460 kPa, x1 = 0.0483	–	785
10510 kPa, x1 = 0.0981	874	–
10550 kPa, x1 = 0.0243	–	748
10620 kPa, x1 = 0.0744	–	823
10680 kPa, x1 = 0.0483	–	790
10690 kPa, x1 = 0.0981	–	849
10700 kPa, x1 = 0.0243	–	753
10850 kPa, x1 = 0.0243	–	758
10850 kPa, x1 = 0.1488	888	–
10860 kPa, x1 = 0.1488	–	865
10950 kPa, x1 = 0.0483	–	795
11620 kPa, x1 = 0.1488	893	–
12430 kPa, x1 = 0.1488	898	–
13270 kPa, x1 = 0.1488	904	–
13660 kPa, x1 = 0.1488	906	–
14090 kPa, x1 = 0.1488	909	–
14420 kPa, x1 = 0.1488	911	–
14870 kPa, x1 = 0.1488	914	–
